“Also recorded” adds a separate entry of the source.
How the values were obtained:
children with autism [1] = test: 12-week placebo-controlled study of NAC: Social Responsiveness Scale (SRS); format: in vivo, human
From the text: The Social Responsiveness Scale (SRS) (Constantino, J. et al., J Dev Behav Pediatr, 21:2-11 (2000); Constantino, J. et al., J Autism Dev Disord., 3:427-433 (2003)) is a norm-referenced, 65-item parent report questionnaire developed to measure social behaviors, including social awareness, social information processing, reciprocal social communication, and social anxiety, in both clinical and non-clinical populations. It is designed for use with children ages 4 through 18, and more recently, a special version of the SRS has been developed for preschoolers (Pine, E. et al., Autism, 10:344-352 (2006)). The SRS items measure the Autistic Spectrum Disorder (ASD) symptoms in the domains of social awareness, social information processing, reciprocal social communication, social anxiety/avoidance, and stereotypic behavior/restricted interests. Each item is scored from 1 (not true) to 4 (almost always true). Scores are obtained for five treatment subscales: Social Awareness (e.g., “Is aware of what others are thinking or feeling”), Social Cognition (e.g., “Doesn't recognize when others are trying to take advantage of him or her”), Social Communication (e.g., “Avoids eye contact or has unusual eye contact”), Social Motivation (e.g., “Would rather be alone than with others”), and Autistic Mannerisms (e.g., “Has an unusually narrow range of interests”). The SRS summary score was continuously distributed within each group and minimally correlated with Intelligent Quotient (IQ). High scores indicate more severe behavioral symptoms.
(§1) A 12-week, double-blind randomized, placebo-controlled study of NAC in children with autism was conducted in the Autism & Developmental Disabilities Clinic in the Division of Child & Adolescent Psychiatry at Stanford University Medical Center. The recruitment period started in March 2009 and ended in September 2010. Subjects with and without mental retardation were included. After obtaining informed consent, subjects were screened and inclusion and exclusion criteria were assessed. No changes in eligibility criteria were applied throughout the study. This investigation was approved by the institutional review board at Stanford University School of Medicine. An investigational new drug application (IND#100905) was filed with the Food and Drug Administration, and the study was registered in National Institutes of Health at ClinicalTrials.gov (identifier number NCT00627705).
(§2) After the screening phase, baseline measures were obtained from subjects continuing to meet inclusion and exclusion criteria. Subjects were then randomized to either placebo or active based on age and gender. As NAC is a nutritional supplement, the quality control is predictably variable and therefore purity is not as stringent as prescription medications. Therefore, in the present study, the stability of the compound was ascertained and the integrity of the active agent was protected by packaging each NAC doses in individual pockets. The active compound and matching placebo were provided by BioAdvantex Pharma, Inc. (Mississauga, Ontario, Canada). […] Subjects randomized to the active drug were initiated at the dose of 900 mg every day for the first 4 weeks, then 900 mg twice daily for 4 weeks and 900 mg three times daily for 4 weeks. (This dose selection was based on previously published studies for other psychiatric conditions (Grant, J. et al., Arch Gen Psychiatry, 66:468-475 (2009); Berk, M. et al., Biol Psychiatry, 64:361-368 (2008); Berk, M. et al., Bio Psychiatry, 64:468-475 (2008)) and the previous experience of our group in studies of children with cystic fibrosis). Alternatively, subjects were initiated at the dose of 900 mg per day, 1,800 mg per day, or 2,700 mg per day of NAC. Alternatively, the subjects were initiated at the dose ranging from 900 mg per day to 2,700 mg per day of NAC.
If a subject could not tolerate a specific dose, s/he would be maintained at the highest tolerated dose. […]

children with autism [2] = test: 12-week double-blind randomized placebo-controlled study of NAC: Aberrant Behavior Checklist (ABC); format: in vivo, human
From the text: The Aberrant Behavior Checklist (ABC) is a standardized scale comprising 58 items for assessing problem behavior in subjects with mental retardation and developmental disabilities (Aman, M. et al., Am J Ment Defic. 89:492-502 (1985)). The checklist is empirically derived from ratings on approximately 1000 subjects, and the items resolve into five subscales: irritability, lethargy/social withdrawal, stereotypic behavior, hyperactivity, and inappropriate speech. High scores indicate more severe behavioral symptoms.
as §1, §2
If a subject could not tolerate a specific dose, s/he would be maintained at the highest tolerated dose. Subjects were evaluated at baseline, week 4, week 8 and week 12. The Aberrant Behavioral Checklist (ABC) (Aman, M. et al., Am J Ment Defic. 89:492-502 (1985)), the Clinical Global Impressions (CGI) (Guy, W., ECDEU Assessment Manual for Psychopharmacology, Rockville, Md., U.S. Department of Health, Education, and Welfare (1976)), and the Dosage Record and Treatment Emergent Symptom Scale (DOTES) (Guy, W., 1976, ECDEU Assessment Manual for Psychopharmacology, Rockville, Md., U.S. Department of Health, Education, and Welfare) were obtained in each visit. Additional secondary measures were obtained at baseline and at week 12 and included the social responsiveness scale (SRS) (Constantino, J. et al., J. Dev Behav Pediatr., 21:2-11 (2000); Constantino, J. et al., J Autism Dev Disord., 33:427-433 (2003)), and the repetitive behavior scale-revised (RBS-R) (Bodfish, J. et al., The Repetitive Behavior Scale: A test manual (1998)). […]

[3] = Baseline (before treatment), NAC group n = 15
[4] = all randomized participants, p>0.100
[5] = standardized mean difference NAC vs placebo at Week 12

CC(=O)N[C@@H](CS)C(=O)O [NAC, N-acetylcysteine]
SRS total, Mean (SD) (children with autism [1]; [3]): 111.9 (28.3) | SRS total, Mean (SD) (children with autism [1]; Week 12, NAC n = 14): 93.8 (26.7) | SRS-Total raw scores, treatment effect (children with autism [1]; all randomized participants, NAC vs placebo, p=0.141): did not significantly influence | SRS-Social Cognition sub-scale, treatment effect (children with autism [1]; all randomized participants, p=0.037, said to appear due to regression to the mean): significant improvements | SRS-Autism Mannerisms sub-scale, treatment effect (children with autism [1]; all randomized participants, p=0.045): significant improvements | any other SRS subscale, treatment effect (children with autism [1]; [4]): no significant treatment effects | SRS-Total scores, treatment effect (children with autism [1]; participants who completed the study (NAC N=13, placebo N=12), p=0.039): significantly improved | SRS total, Cohen's d (children with autism [1]; [5]): .14 | ABC hyperactivity, Mean (SD) (children with autism [2]; [3]): 23.4 (9.0) | ABC inappropriate speech, Mean (SD) (children with autism [2]; [3]): 4.9 (3.2) | ABC irritability, Mean (SD) (children with autism [2]; [3]): 16.9 (7.9) | ABC lethargy, Mean (SD) (children with autism [2]; [3]): 15.2 (9.5) | ABC stereotypy, Mean (SD) (children with autism [2]; [3]): 9.1 (5.5) | ABC total, Mean (SD) (children with autism [2]; [3]): 69.7 (24.7) | ABC hyperactivity, Mean (SD) (children with autism [2]; Week 12, NAC n = 14): 12.4 (11.4) | ABC inappropriate speech, Mean (SD) (children with autism [2]; Week 12, NAC n = 14): 2.5 (2.6) | ABC irritability, Mean (SD) (children with autism [2]; Week 12, NAC n = 14): 7.2 (5.7) | ABC lethargy, Mean (SD) (children with autism [2]; Week 12, NAC n = 14): 11.0 (9.4) | ABC stereotypy, Mean (SD) (children with autism [2]; Week 12, NAC n = 14): 5.6 (5.7) | ABC total, Mean (SD) (children with autism [2]; Week 12, NAC n = 14, 900 mg daily 4 wk, twice daily 4 wk, three times daily 4 wk, high scores = more severe): 38.7 (24.1) | ABC-Irritability, treatment effect (Group x Time) (children with autism [2]; all randomized participants, NAC vs placebo, effects beginning in week 4, continuing through week 8 and 12, p<0.001): significantly improved irritability; also recorded: significant behavioral improvements | ABC-Total, treatment effect (Group x Time) (children with autism [2]; all randomized participants, NAC vs placebo, from week 4 through week 12, p=0.010): significant effects; also recorded: significant behavioral improvements | ABC-Stereotypy, treatment effect (children with autism [2]; all randomized participants, NAC vs placebo, p=0.096): marginally significant improvement | ABC hyperactivity subscale, treatment effect (children with autism [2]; [4]): no significant treatment effects | ABC inappropriate speech subscale, treatment effect (children with autism [2]; [4]): no significant treatment effects | ABC lethargy subscale, treatment effect (children with autism [2]; [4]): no significant treatment effects | ABC inappropriate speech, Cohen's d (children with autism [2]; [5]): .35 | ABC irritability, Cohen's d (children with autism [2]; [5]): .72 | ABC lethargy, Cohen's d (children with autism [2]; [5]): −.32 | ABC stereotypy, Cohen's d (children with autism [2]; [5]): .37 | ABC total, Cohen's d (children with autism [2]; [5]): .63

From patent publication US20130296430A1, “COMPOSITIONS AND METHODS FOR TREATING AUTISM AND AUTISM SPECTRUM DISORDER” (priority 2012, published 2013)
